SMILES strings stand for the structures. “Also recorded” adds a separate entry of the source.

The source of these data is US10327423B2, “Antimicrobial compounds and compositions, and uses thereof” (Akeso Biomedical, Inc., priority 2014, dated 2019).

The test system of assay [1] is kanamycin resistant strain of Enteropathogenic E. coli EPEC (E2348/69). The assay can be described thus: Growth of kanamycin resistant EPEC with Fe-QA and kanamycin (patch on growth plate, growth curve). The format is cell-based, Escherichia coli. The method, then:
A kanamycin resistance gene was introduced into the genome of Enteropathogenic E. coli EPEC, (E2348/69), genotype; Wildtype EPEC-O-17:H6 allowing the kanamycin resistant strain of EPEC to grow in the presence of a patch that has been immersed in kanamycin (at a concentration of 50 μg/mL). The kanamycin resistant strain of EPEC was then immersed in a patch in a solution of Fe-QA.

Assay [2] concerns Camyplobacter jejuni NCTC 11168. The assay can be described thus: Motility on brain-heart infusion plate. It counts as cell-based, Campylobacter jejuni. The note with it: FeQ 34 μM; 43 hours. The method, then: Camyplobacter jejuni NCTC 11168 was treated with FeQ (34 μM) and a plate containing brain-heart infusion (BHI) medium inoculated with […], 2×10^5 colony forming units of the treated bacteria and the plate was cultured for 43 hours. The growth and motility of the bacteria after treatment with FeQ was compared to a positive control where the bacteria had not been treated with FeQ, and also to a negative control where no bacteria were applied to a plate of the BHI medium. […] In contrast, Campylobacter jejuni that was not treated with FeQ was motile, and spread around the culture plate. There was no growth visible, as expected, on the plates that were not inoculated with bacteria.

In assay [3] the test system is Enterococcus faecalis NCTC 12697. Briefly: Biofilm formation on plastic coated UV beads. The format is cell-based. The conditions noted are these: different concentrations of Fe-QA; T=24 h. The method, then:
Bacteria (Enterococcus faecalis NCTC 12697, Staphylococcus epidermidis F1513 and Staphylococcus aureus ATCC 25923) were grown on Brain heart infusion (BHI) passaged to new medium either containing Fe-QA or alone. Growth suspensions were prepared at 0.0001 OD/ml and then allowed to grow at 37° C. under normal atmospheric conditions for 24 h in BHI with plastic coated UV beads (Lascells). […], 10 μl suspension was serially diluted 10 fold to 10-3, 10-4, 10-5, 10-6, 10-7, 10-8. For each dilution, 10 μl was spotted on BHI agar plates and colonies counted after 24 h. The beads were also removed washed in PBS before adding to 1 ml PBS. After vortex mixing, 10 μl of the cell suspension was serially diluted as above and cell counts carried out.

A short description of assay [4]: Growth performance of broilers challenged with Campylobacter dirty litter at day 20. The format is in vivo, chicken (Ross 308 male broilers). The note with it: treatment groups 3, 5, 6, 7 (FeQ) and 8 (FeTyr). The method, then: A study was performed to evaluate growth promotion and reduction of Campylobacter carriage using FeQ and FeTyr in Ross 308 male broilers with 7 treatment groups. Each treatment group comprised four replicates of 10 birds per pen (40 birds/treatment group and 4 pens of 10 birds/treatment group), and there were 2 control groups and 5 test groups. All the test groups and one of the control groups were exposed at day 20 of the trial to dirty litter, which tested positive for Campylobacter. This method was used to provide a more natural method to Campylobacter challenge the birds. Thus there was a positive control where one treatment group was challenged with Campylobacter and one negative control group where the birds were not challenged, and five treatment groups that were all challenged with Campylobacter. The total number of birds used in the 7 treatment groups was 280. Treatment group 1 was a negative control where birds just received the commercial feed, and were not challenged with dirty litter containing Campylobacter. Treatment group 2 was the positive control where the birds received the commercial feed, and were challenged with dirty litter containing Campylobacter at day 20. Treatment group 3 received 0.22 g/L of FeQ in their drinking water and 0.22 g/Kg FeQ in their feed during the entire trial, and was challenged with dirty litter containing Campylobacter at day 20. Treatment group 5 received 0.22 g/L of FeQ in their drinking water during the entire trial, and was challenged with dirty litter containing Campylobacter at day 20. Treatment group 6 received 0.22 g/kg FeQ in their feed during the entire trial, and was challenged with dirty litter containing Campylobacter at day 20. Treatment group 7 received 0.022 g/L FeQ in their drinking water during the entire trial, and was challenged with dirty litter containing Campylobacter at day 20. Treatment group 8 received 0.02 g/L FeTyr in their drinking water during the entire trial, and was challenged with dirty litter containing Campylobacter at day 20. The FeTyr was pre-dissolved in DMSO, and diluted to provide a solution of 0.02 g/L of FeTyr in water. (An additional treatment group 4 was terminated due to solubility issues.) […]
The feeding program is show in Table 4. […] All birds were weighed individually and feed weigh backs recorded per pen at day 0, 11, 21, 24 and 42 days.
In order to minimize risk of cross-contamination, standard industry biosecurity measures were used including: disinfecting boots, changing overshoes and gloves between pens/treatments, entering Campylobacter negative pens before entering Campylobacter positive pens, and leaving adjacent pens empty. Daily health, culls, and mortality were recorded. All bird weights were recorded at 0, 11, 21, 24, 33 and 42 days. […]

Assay [5] relates to Enteropathogenic E. coli (EPEC) strain E2348/69. The assay can be described thus: Growth curve of antibiotic resistant EPEC with gentamicin and Fe complex. It counts as cell-based, Escherichia coli. The note with it: for rate of growth relative to gentamicin alone: gentamicin 1.25 μM and FeQ 10 to 100 μM. The method, then: The impact on the growth curve of antibiotic resistant Enteropathogenic E. coli (EPEC) strain E2348/69 (genotype Wild Type EPEC O17:H6) when grown in the presence of (i) gentamicin (1.25 μM), (ii) Fe-Tyr (100 μM), (iii) gentamicin (1.25 μM) and Fe-Tyr (1.25 μM), and (iv) a control with no gentamicin or Fe-Tyr present was determined.
The impact on the growth curve of antibiotic resistant Enteropathogenic E. coli (EPEC) strain E2348/69 (genotype Wild Type EPEC O17:H6) when grown in the presence of a fixed concentration of gentamicin (1.25 μM) and an increasing concentration of FeQ versus the strain grown in the presence of only FeQ or only gentamicin, was determined.
The impact on the growth curve of antibiotic resistant Enteropathogenic E. coli (EPEC) strain E2348/69 (genotype Wild Type EPEC O17:H6) when grown in the presence of a fixed concentration of gentamicin (1.25 μM) and an increasing concentration of FeDOPA versus the strain grown in the presence of only FeDOPA or only gentamicin, was determined.

As for `O=C1[O][Fe]23([O]C(=O)[C@]4(C[C@@H](O)[C@H](O)[C@H](O)C4)[O]2)([O]C(=O)[C@]2(C[C@@H](O)[C@H](O)[C@H](O)C2)[O]3)[O][C@@]12C[C@@H](O)[C@H](O)[C@H](O)C2` [FeQ, a complex of quinic acid with Fe III], the “rate of growth (growth curve) relative to kanamycin alone” value in assay [1] (kanamycin and Fe-QA) was “inhibited”. Besides, in assay [1] (medium only containing Fe-QA), the “rate of growth (growth curve)” value is “most rapid growth”. In addition, the “bacterial growth on plate around patch” value in assay [1] (patch immersed in Fe-QA alone) is given as “no impact on the growth; also recorded: no significant effect on bacterial growth”; in assay [1] (patch immersed in Fe-QA and kanamycin (50 μg/mL)), “fail to grow”. The “motility of bacteria on BHI plate” value in assay [2] is “not motile”. Further, in assay [3], the “biofilm formation on plastic coated UV beads” value is reported as “inhibited”. Moreover, the “ABW at day 42 versus positive control (challenged, untreated)” value in assay [4] is listed as “performed better than the positive control”. The “MFCR at day 42 versus positive control (challenged, untreated)” value in assay [4] is “performed better than the positive control”. Further, the growth rate result in assay [5] (FeQ alone, 10 μM to 100 μM) is given as “did not impact the growth rate”. Moreover, the entries for the “rate of growth relative to gentamicin alone” value in assay [5] and in assay [5] (listed as Fe-QA) were “inhibited” and “loses its resistance”, respectively.
